Test results: patent US11076594B2, “Pyrazolone compound or salt thereof, preparation method therefor, herbicide composition and use thereof” (QINGDAO KINGAGROOT CHEMICAL COMPOUNDS CO., LTD., priority 2015, dated 2021)

What was measured:
Format in all cases: in vivo
wheat [1] = assay: wheat field test, crop selectivity, greenhouse spray at 4 leaf stage; conditions: 250 g/ha of the active substance; 4 weeks after treatment
Summary of the method: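 Potted plants grown in greenhouse were sprayed at the 4 leaf stage, 2–3 weeks post-sowing, with compound in acetone plus methyl oleate emulsion diluted in water. After 4 weeks of further greenhouse culture, growth control was scored as fresh weight control rate.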

corn gromwell = assay: wheat field resistant broadleaf weed control, greenhouse spray at 4 leaf stage; design: key: Level 10: completely dead; Level 9: above 95% growth control rate; Level 8: above 90% growth control rate; Level 7: above 80% growth control rate; Level 6: above 70% growth control rate; Level 5: above 60% growth control rate; Level 4: above 50% growth control rate; Level 3: above 20% growth control rate; Level 2: 5%-20% growth control rate; Level 1: below 5% growth control rate; conditions: 250 g/ha of the active substance; 4 weeks after treatment; ALS inhibitor resistant
Summary of the method: (§1)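 After sowing in pots under 0.5-2 cm soil, plants grow to the 4 leaf stage and receive a spray of compound formulated in acetone, methyl oleate emulsion and water. Four weeks later in the greenhouse, the fresh weight control rate gives the growth control rate.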

flixweed = assay: as above; design: key: Level 10: completely dead; Level 9: above 95% growth control rate; Level 8: above 90% growth control rate; Level 7: above 80% growth control rate; Level 6: above 70% growth control rate; Level 5: above 60% growth control rate; Level 4: above 50% growth control rate; Level 3: above 20% growth control rate; Level 2: 5%-20% growth control rate; Level 1: below 5% growth control rate; conditions: 250 g/ha of the active substance; 4 weeks after treatment; ALS inhibitor resistant
Summary of the method: as §1

chickweed = assay: as above; design: key: Level 10: completely dead; Level 9: above 95% growth control rate; Level 8: above 90% growth control rate; Level 7: above 80% growth control rate; Level 6: above 70% growth control rate; Level 5: above 60% growth control rate; Level 4: above 50% growth control rate; Level 3: above 20% growth control rate; Level 2: 5%-20% growth control rate; Level 1: below 5% growth control rate; conditions: 250 g/ha of the active substance; 4 weeks after treatment; ALS inhibitor resistant
Summary of the method: as §1

shepherd's purse = assay: as above; design: key: Level 10: completely dead; Level 9: above 95% growth control rate; Level 8: above 90% growth control rate; Level 7: above 80% growth control rate; Level 6: above 70% growth control rate; Level 5: above 60% growth control rate; Level 4: above 50% growth control rate; Level 3: above 20% growth control rate; Level 2: 5%-20% growth control rate; Level 1: below 5% growth control rate; conditions: 250 g/ha of the active substance; 4 weeks after treatment; ALS inhibitor resistant
Summary of the method: as §1

foxtail = assay: weed control effect in post-emergence stage (Table 1); design: key: Level 10: completely dead; Level 9: above 95% growth control rate; Level 8: above 90% growth control rate; Level 7: above 80% growth control rate; Level 6: above 70% growth control rate; Level 5: above 60% growth control rate; Level 4: above 50% growth control rate; Level 3: above 20% growth control rate; Level 2: 5%-20% growth control rate; Level 1: below 5% growth control rate; conditions: post-emergence spray at 4-5 leaf stage, 250 g/ha active ingredient with 450 kg/ha water, rated after 3 weeks in greenhouse
Summary of the method: (§2)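 Fresh-weight reduction is recorded three weeks after a sprayer applies the acetone/Tween 80 aqueous compound solution to greenhouse-grown plants at the 4-5 leaf stage.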

Indian mallow = assay: as above; design: key: Level 10: completely dead; Level 9: above 95% growth control rate; Level 8: above 90% growth control rate; Level 7: above 80% growth control rate; Level 6: above 70% growth control rate; Level 5: above 60% growth control rate; Level 4: above 50% growth control rate; Level 3: above 20% growth control rate; Level 2: 5%-20% growth control rate; Level 1: below 5% growth control rate; conditions: post-emergence spray at 4-5 leaf stage, 250 g/ha active ingredient with 450 kg/ha water, rated after 3 weeks in greenhouse
Summary of the method: as §2

rorippa indica = assay: as above; design: key: Level 10: completely dead; Level 9: above 95% growth control rate; Level 8: above 90% growth control rate; Level 7: above 80% growth control rate; Level 6: above 70% growth control rate; Level 5: above 60% growth control rate; Level 4: above 50% growth control rate; Level 3: above 20% growth control rate; Level 2: 5%-20% growth control rate; Level 1: below 5% growth control rate; conditions: post-emergence spray at 4-5 leaf stage, 250 g/ha active ingredient with 450 kg/ha water, rated after 3 weeks in greenhouse
Summary of the method: as §2

echinochloa = assay: as above; design: key: Level 10: completely dead; Level 9: above 95% growth control rate; Level 8: above 90% growth control rate; Level 7: above 80% growth control rate; Level 6: above 70% growth control rate; Level 5: above 60% growth control rate; Level 4: above 50% growth control rate; Level 3: above 20% growth control rate; Level 2: 5%-20% growth control rate; Level 1: below 5% growth control rate; conditions: post-emergence spray at 4-5 leaf stage, 250 g/ha active ingredient with 450 kg/ha water, rated after 3 weeks in greenhouse
Summary of the method: as §2

crab grass = assay: as above; design: key: Level 10: completely dead; Level 9: above 95% growth control rate; Level 8: above 90% growth control rate; Level 7: above 80% growth control rate; Level 6: above 70% growth control rate; Level 5: above 60% growth control rate; Level 4: above 50% growth control rate; Level 3: above 20% growth control rate; Level 2: 5%-20% growth control rate; Level 1: below 5% growth control rate; conditions: post-emergence spray at 4-5 leaf stage, 250 g/ha active ingredient with 450 kg/ha water, rated after 3 weeks in greenhouse
Summary of the method: as §2

bidens bipinnata = assay: as above; design: key: Level 10: completely dead; Level 9: above 95% growth control rate; Level 8: above 90% growth control rate; Level 7: above 80% growth control rate; Level 6: above 70% growth control rate; Level 5: above 60% growth control rate; Level 4: above 50% growth control rate; Level 3: above 20% growth control rate; Level 2: 5%-20% growth control rate; Level 1: below 5% growth control rate; conditions: post-emergence spray at 4-5 leaf stage, 250 g/ha active ingredient with 450 kg/ha water, rated after 3 weeks in greenhouse
Summary of the method: as §2

rice = assay: post-emergence stage experiment, crop (Table 1); design: key: Level 10: completely dead; Level 9: above 95% growth control rate; Level 8: above 90% growth control rate; Level 7: above 80% growth control rate; Level 6: above 70% growth control rate; Level 5: above 60% growth control rate; Level 4: above 50% growth control rate; Level 3: above 20% growth control rate; Level 2: 5%-20% growth control rate; Level 1: below 5% growth control rate; conditions: post-emergence spray at 4-5 leaf stage, 250 g/ha active ingredient with 450 kg/ha water, rated after 3 weeks in greenhouse
Summary of the method: as §2

wheat [2] = assay: post-emergence stage experiment, crop (Table 1); conditions: post-emergence spray at 4-5 leaf stage, 250 g/ha active ingredient with 450 kg/ha water, rated after 3 weeks in greenhouse
Summary of the method: as §2

corn = assay: post-emergence stage experiment, crop (Table 1); conditions: post-emergence spray at 4-5 leaf stage, 250 g/ha active ingredient with 450 kg/ha water, rated after 3 weeks in greenhouse
Summary of the method: as §2

CCc1nn(C)c(O)c1C(=O)c1ccc(C(F)(F)F)c(N2CCCCCC2=O)c1Cl [Compound 120]
Wheat (activity level, crop damage) (wheat [1]): 1 (Level 1: below 5% growth control rate)
corn gromwell weed controlling effect (activity level) (corn gromwell): 10
flixweed weed controlling effect (activity level) (flixweed): 10
chickweed weed controlling effect (activity level) (chickweed): 10
shepherd's purse weed controlling effect (activity level) (shepherd's purse): 10
weed control effect, Green foxtail (level) (foxtail): 7 (Level 7: above 80% growth control rate)
weed control effect, Indian mallow (level) (Indian mallow): 4 (Level 4: above 50% growth control rate)
weed control effect, Rorippa indica (level) (rorippa indica): 10
weed control effect, Echinochloa (level) (echinochloa): 10
weed control effect, Crab grass (level) (crab grass): 1 (Level 1: below 5% growth control rate)
weed control effect, Bidens bipinnata (level) (bidens bipinnata): 4 (Level 4: above 50% growth control rate)
effect on crop, Rice (level) (rice): 5 (Level 5: above 60% growth control rate)
effect on crop, Wheat (level) (wheat [2]): 1 (Level 1: below 5% growth control rate)
effect on crop, Corn (level) (corn): 1 (Level 1: below 5% growth control rate)

CCOc1c(C(=O)Oc2c(C(=O)c3ccc(C(F)(F)F)c(N4CCCCCC4=O)c3Cl)c(C)nn2C)cnn1C [Compound 056]
Wheat (activity level, crop damage) (wheat [1]): 0
corn gromwell weed controlling effect (activity level) (corn gromwell): 10
flixweed weed controlling effect (activity level) (flixweed): 10
chickweed weed controlling effect (activity level) (chickweed): 10
shepherd's purse weed controlling effect (activity level) (shepherd's purse): 10
weed control effect, Green foxtail (level) (foxtail): 1 (Level 1: below 5% growth control rate)
weed control effect, Indian mallow (level) (Indian mallow): 10
weed control effect, Rorippa indica (level) (rorippa indica): 10
weed control effect, Echinochloa (level) (echinochloa): 5 (Level 5: above 60% growth control rate)
weed control effect, Crab grass (level) (crab grass): 3 (Level 3: above 20% growth control rate)
weed control effect, Bidens bipinnata (level) (bidens bipinnata): 5 (Level 5: above 60% growth control rate)
effect on crop, Rice (level) (rice): 3 (Level 3: above 20% growth control rate)
effect on crop, Wheat (level) (wheat [2]): 0
effect on crop, Corn (level) (corn): 0

CCn1nc(C)c(C(=O)c2ccc(C(F)(F)F)c(N3CCCCCC3=O)c2Cl)c1OC(=O)c1cn(C)nc1C [Compound 119]
Wheat (activity level, crop damage) (wheat [1]): 1 (Level 1: below 5% growth control rate)
corn gromwell weed controlling effect (activity level) (corn gromwell): 10
flixweed weed controlling effect (activity level) (flixweed): 10
chickweed weed controlling effect (activity level) (chickweed): 10
shepherd's purse weed controlling effect (activity level) (shepherd's purse): 10
weed control effect, Green foxtail (level) (foxtail): 9 (Level 9: above 95% growth control rate)
weed control effect, Indian mallow (level) (Indian mallow): 3 (Level 3: above 20% growth control rate)
weed control effect, Rorippa indica (level) (rorippa indica): 10
weed control effect, Echinochloa (level) (echinochloa): 10
weed control effect, Crab grass (level) (crab grass): 5 (Level 5: above 60% growth control rate)
weed control effect, Bidens bipinnata (level) (bidens bipinnata): 5 (Level 5: above 60% growth control rate)
effect on crop, Rice (level) (rice): 6 (Level 6: above 70% growth control rate)
effect on crop, Wheat (level) (wheat [2]): 1 (Level 1: below 5% growth control rate)
effect on crop, Corn (level) (corn): 3 (Level 3: above 20% growth control rate)

CCc1nn(C)c(OC(=O)c2cn(C)nc2C)c1C(=O)c1ccc(C(F)(F)F)c(-n2cccn2)c1Cl [Compound 131]
Wheat (activity level, crop damage) (wheat [1]): 0
corn gromwell weed controlling effect (activity level) (corn gromwell): 10
flixweed weed controlling effect (activity level) (flixweed): 10
chickweed weed controlling effect (activity level) (chickweed): 10
shepherd's purse weed controlling effect (activity level) (shepherd's purse): 10
weed control effect, Green foxtail (level) (foxtail): 10
weed control effect, Indian mallow (level) (Indian mallow): 10
weed control effect, Rorippa indica (level) (rorippa indica): 10
weed control effect, Echinochloa (level) (echinochloa): 10
weed control effect, Crab grass (level) (crab grass): 3 (Level 3: above 20% growth control rate)
weed control effect, Bidens bipinnata (level) (bidens bipinnata): 10
effect on crop, Rice (level) (rice): 10
effect on crop, Wheat (level) (wheat [2]): 0
effect on crop, Corn (level) (corn): 4 (Level 4: above 50% growth control rate)

Cn1cc(C(=O)Oc2c(C(=O)c3ccc(C(F)(F)F)c(N4CCCC4=O)c3Cl)c(C3CC3)nn2C)cn1 [Compound 028]
Wheat (activity level, crop damage) (wheat [1]): 0
corn gromwell weed controlling effect (activity level) (corn gromwell): 10
flixweed weed controlling effect (activity level) (flixweed): 10
chickweed weed controlling effect (activity level) (chickweed): 10
shepherd's purse weed controlling effect (activity level) (shepherd's purse): 10
weed control effect, Green foxtail (level) (foxtail): 1 (Level 1: below 5% growth control rate)
weed control effect, Indian mallow (level) (Indian mallow): 10
weed control effect, Rorippa indica (level) (rorippa indica): 10
weed control effect, Echinochloa (level) (echinochloa): 5 (Level 5: above 60% growth control rate)
weed control effect, Crab grass (level) (crab grass): 4 (Level 4: above 50% growth control rate)
weed control effect, Bidens bipinnata (level) (bidens bipinnata): 7 (Level 7: above 80% growth control rate)
effect on crop, Rice (level) (rice): 1 (Level 1: below 5% growth control rate)
effect on crop, Wheat (level) (wheat [2]): 0
effect on crop, Corn (level) (corn): 1 (Level 1: below 5% growth control rate)
